These results are taken from patent US20230129651A1, “HAIRPIN STRUCTURE NUCLEIC ACID MOLECULES CAPABLE OF MODULATING TARGET GENE EXPRESSION AND USES THEREOF” (KOREA ADVANCED INSTITUTE OF SCIENCE AND TECHNOLOGY, priority 2021, published 2023).

For series [1], the system named is Hela-141 cells. As to the kind of experiment: Cell viability / apoptosis of Hela-141 cells after transfection. The series is classed as cell-based. On the procedure:
(§1) The miRNA triggers were assayed for cytotoxicity and apoptosis induction, using the CCK-8 (Cell Counting Kit-8) (Dojindo, Kumamoto, Japan) according to the manufacturer's instruction. Cells were incubated in 96-well plates (5×10^3 cells/well) at 37° C. for 24 hours under a 5% CO2 atmosphere, followed by transfection. Three days after transfection, the medium was removed. A 10-fold dilution of CCK-8 solution in DMEM was added to the cells which were then incubated at 37° C. for 2 hours. After incubation, absorbance was read at 450 nm on Tecan Infinite M200 pro microplate reader (Mnnedorf, Switzerland).
(§2) The linear miRNA triggers or siRNAs (siLuc and siMcl-1) prepared above were transfected into Hela, Hela-141, and Hela-200c cells which were then measured for cell viability. The results are depicted in FIG. 15.
(§3) The hairpin miRNA triggers prepared above were transfected into Hela and Hela-141 cells which were then assayed for apoptosis. As a control, the siRNA (siMcl-1; Table 14) which can repress the expression of mcl-1 was transfected to Hela and Hela-141 cells and measured for apoptotic activity.

The subject of series [2] is Hela cells. Kind of series: Cell viability / apoptosis of Hela cells after transfection. The series is classed as cell-based. On the procedure: as §1, §2, §3
For series [3], the system named is miR-141 and Mcl1 mRNA. Kind of series: PAGE assay of hairpin miRNA trigger binding to miRNA and target mRNA. The following applies: 100 nM each, 37° C., 1 hour. On the procedure:
To a buffer (1×PBS+137 mM NaCl, 10 mM PO4, 2.7 mM KCl, 5 mM MgCl2; pH 7.4) containing the hairpin miRNA trigger (HP) verified through computer modeling, a miRNA and/or a target mRNA were each added at a concentration of 100 nM, followed by incubation at 37° C. for 1 hour. Each sample was loaded to a PAGE gel and electrophoresed.

The test system of series [4] is cells. As to the kind of experiment: Cytotoxicity assay of chemically modified miRNA triggers (CCK-8). Format: cell-based. The following applies: after transfection. How it is done:
as §1
In addition, FPS HP and 2′-OMe HP, which were the most resistant to degradation in biological samples, were analyzed for cytotoxicity. In this regard, the HP in which the entire nucleotides of miRNA trigger (LP) were modified with PS (expressed as PS in Table 6 and FIG. 6), the linear probe in which the entire nucleotides of miRNA trigger (LP) were modified with 2′-O-Me (expressed as 2′O-me in Table 6 and FIG. 6), the control DNA LP (expressed as DNA in Table 6 and FIG. 6), or siRNA was transfected into cells which were then measured for cell viability using the method of Reference Example 9. The result is depicted in FIG. 6. […]

Series [5] has as its system Hela-200c cells. As to the kind of experiment: Cell viability / apoptosis of Hela-200c cells after transfection. Format: cell-based. On the procedure:
as §1, §2

Series [6] relates to breast cancer cell line MDA-MB-231. As to the kind of experiment: Cell viability of MDA-MB-231 after transfection. The following applies: Example 8-2, combination. The series is classed as cell-based. How it is done: as §1
The seven linear miRNA triggers prepared above and the positive control siRNA(siBcl-xL) capable of binding to bcL-xL were transfected into the breast cancer cell line MDA-MB-231 in which miR-222 is overexpressed. Cell viability was measured and is depicted in FIG. 32a.
Linear miRNA triggers that could bind to miR-222 and target bcl-xL and mcl-1, respectively, were prepared and transfected alone or in combination into the breast cancer cell line MDA-MB-231. Cell viability was measured and the measurements are depicted in FIG. 34. siRNAs against Mcl-1 and Bcl-xL were used as controls. Sequences are listed in Table 23 for the linear miRNA trigger prepared above, in Tables 22 and 9 for the controls Luc-Luc-Luc and luc-222-222, respectively, and in Table 13 for the siRNAs. Every nucleotide of the triggers and the controls was chemically modified with 2′-OMe.
Linear miRNA triggers that could bind to miR-141 or let7f and target Bcl-xL or Mcl-1 were prepared and transfected alone or in combination into the breast cancer cell line MDA-MB-231 which was then measured for cell viability. […]
The hairpin miRNA triggers prepared above were transfected into MDA-MB-231 and MDA-MB-453 cells which were then measured for cell viability. […]
Hairpin miRNA triggers which could bind to miR-222 or let-7f and target mcl-1 or bcl-xL were prepared and transfected into the breast cancer cell line MDA-MB-231 which was then measured for cell viability. […]

Series [7] relates to GFP mRNA. Kind of series: GFP fluorescence intensity in GFP-expressing Hela-141 cells. The series is classed as cell-based. The following applies: trigger 30 to 60 nM, siGFP compared to siLuc. From the text:
A GFP fluorescent protein-expressing plasmid (used in Chen L L, DeCerbo J N, Carmichael G G. 2008. Alu element-mediated gene silencing. EMBO J 27: 1694-1705) was transfected into Hela-141 cells to prepare GFP-expressing Hela-141 cells. As stated in Reference Example 1, a linear miRNA trigger (LP; GFP_141_141), which can target GFP mRNA (=complementarily bind to GFP mRNA to regulate the expression of GFP) and complementarily bind to miR-141, and siRNAs which target GFP and Luc (Luciferase), respectively, were synthesized in Bioneer Inc. Sequences of the LP and siRNAs and types and positions of chemical modifications in each sequence are listed in Table 8, below.
Above all, siLuc and siGFP were transfected into the GFP-expressing Hela-141 cells which were then measured for fluorescence intensity on an ELISA reader. […] In addition, the linear miRNA trigger (GFP(1)_141_141) was transfected into the GFP-expressing Hela-141 cells which were then measured for fluorescence intensity. The result is depicted in FIG. 8. For the transfection, the GFP plasmid and GFP_141_141 were used at a concentration of 0.5 to 1 μg/ml and 30 to 60 nM, respectively.

In the oligonucleotide strings, read from the 5' end, every base follows the letter of its sugar. An asterisk marks phosphorothioate; unmarked linkages are phosphodiester. Other units and linkages are bracketed, terminal groups are in braces. A string of capitals states the bases alone. d = 2'-deoxy (DNA)

In the case of “HP_Mcl-1(3)_141: hairpin miRNA trigger binding miR-141 and targeting mcl-1; SEQ ID NO 68 (CGAAGGAAGUAUCGCCAUCUUUACCAGACAGUGUUACGAUACUUCCUUCG; all 2'-O-methyl, backbone not given here; hairpin)”, in series [1], the apoptosis induced entry is “about 40%”. The “apoptosis / cell viability (in words)” value in series [2] was “did not lead Hela cells to death at all”.
“HP-Mcl1-141: unmodified hairpin miRNA trigger binding miR-141 and Mcl-1 mRNA; SEQ ID NO 18 (CAAGAGGATTATCCATCTTTACCTCACAGTGTTAATAATCCTCTTG; listed as DNA, further chemistry not given here)”: the “binding to target mRNA in the absence of the miRNA” value in series [3] (lane 3) was “does not bind to the target mRNA”. Moreover, in series [3] (lanes 2 and 4), the “binding to miRNA and/or target mRNA in the presence of the miRNA” value was “bind to the miRNA and/or the target mRNA”.
With “PS: miRNA trigger of random sequence with entire nucleotides PS-modified, Table 6; SEQ ID NO 37 (dT*dC*dG*dA*dA*dG*dT*dA*dC*dT*dC*dA*dG*dC*dG*dT*dA*dA*dG*dT*dT*dC*dG*dA*dA*dG*dT*dA*dC*dT*dC*dA*dG*dC*dG*dT*dA*dA*dG*dT*dT*dC*dG*dA*dA*dG*dT*dA*dC*dT*dC*dA*dG*dC*dG*dT*dA*dA*dG*dT)”, in series [4], the cell viability entry is listed as “less than 40%”.
As for “2′-O-Me: linear probe with entire nucleotides modified with 2′-O-Me, Table 6; SEQ ID NO 38 (UCGAAGUACUCAGCGUAAGUUCGAAGUACUCAGCGUAAGUUCGAAGUACUCAGCGUAAGU; all 2'-O-methyl, backbone not given here)”, in series [4], the “cell viability versus non-transfected negative control (in words)” value is recorded as “not significantly different in viability from the negative control”.
On to “HP_Mcl-1(1)_141: hairpin miRNA trigger binding miR-141 and targeting mcl-1; SEQ ID NO 67 (GCUACGUAGUUCGGCCAUCUUUACCAGACAGUGUUACCGAACUACGUAGC; all 2'-O-methyl, backbone not given here; hairpin)”, for which, in series [1], the apoptosis induced result is reported as “about 40%”. For the same molecule, in series [2], the “apoptosis / cell viability (in words)” value is on record as “did not lead Hela cells to death at all”.
Regarding “Mcl-1_200c_200c: linear miRNA trigger binding miR-200c and targeting Mcl-1 gene; SEQ ID NO 66 (111 in Table 24) (UCCAUCAUUACCGCGCAGUAUUAUCCAUCAUUACCGCGCAGUAUUACCGAACUACGUAGC; all 2'-O-methyl, backbone not given here)”, the “apoptosis / cell viability (in words)” value in series [1] is on record as “no significant influence on cell viability”. Further, the apoptosis induced entry in series [5] is listed as “about 40%”.
Consider “Mel-1_222_222: linear miRNA trigger binding miR-222 and targeting mcl-1; SEQ ID NO 109 (ACCCAGUAGCCAGAUGUAGCUACCCAGUAGCCAGAUGUAGCUCCGAACUACGUAGC; all 2'-O-methyl, backbone not given here)”, for which the “apoptotic effect on additional introduction to the bcl-xL-targeting trigger” value in series [6] is on record as “did not further increase the apoptotic effect”.
With “siGFP: siRNA which targets GFP; SEQ ID NO 44 (UUAUGUUUCAGGUUCAGGG; unmodified RNA) [reference compound]”, the GFP fluorescence intensity entry in series [7] is recorded as “significantly reduced fluorescence intensity”.

B1: GFP(1)_141_141: linear miRNA trigger targeting GFP mRNA and binding miR-141; SEQ ID NO 41 (nucleic acid)
chain: CCAUCUUUACCUCACAGUGUUACCAUCUUUACCUCACAGUGUUAUUAUGUUUCAGGUUCAGGGGGA
modifications: all 2'-O-methyl, backbone not given here
B1: the GFP fluorescence intensity result in series [7] is recorded as “reduced GFP fluorescence intensity in a dose-dependent manner”.
